The values that follow come from patent US20170305857A1, “N-ACYLPIPERIDINE ETHER TROPOMYOSIN-RELATED KINASE INHIBITORS” (Pfizer Limited, priority 2014, published 2017).

Molecules are shown by their SMILES.

By IC50 is commonly meant the concentration at which inhibition is half-maximal.

T1 sequence (P04629 441-796): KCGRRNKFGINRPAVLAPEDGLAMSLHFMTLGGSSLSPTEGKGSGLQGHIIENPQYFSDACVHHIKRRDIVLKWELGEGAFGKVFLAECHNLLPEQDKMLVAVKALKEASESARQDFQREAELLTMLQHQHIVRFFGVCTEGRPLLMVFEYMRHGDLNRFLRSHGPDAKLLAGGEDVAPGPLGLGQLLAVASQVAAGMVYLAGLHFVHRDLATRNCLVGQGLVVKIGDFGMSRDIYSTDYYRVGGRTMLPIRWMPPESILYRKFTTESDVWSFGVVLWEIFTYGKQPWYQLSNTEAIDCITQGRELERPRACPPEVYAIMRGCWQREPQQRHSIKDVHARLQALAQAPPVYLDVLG

This experiment addresses T1, recombinant His-tagged cytoplasmic domains of TRKA receptor (NTRK1, PV3144, aa 441-796) (Homo sapiens, UniProt P04629).
T1 construct: aa 441-796; His; purchased Invitrogen PV3144
As to the kind of experiment: Isolated TRK enzyme assay (HTRF KinEASE-TK, PV3144 TrkA enzyme assay). In kind it is biochemical. Conditions: 4 nM enzyme, 40 uM ATP, 35 min, arithmetic mean where more than one reading. An outline of the steps: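 Enzyme and ATP were preincubated with compound for 20 min at room temperature in buffer with 10 mM MgCl and 2 mM DTT. TK-substrate-Biotin was then added (1 uM final) and the reaction run for an enzyme-specific optimized time. Phosphorylation was read by HTRF, and IC50 values came from sigmoid fits of percent inhibition normalized to plate controls, averaged over replicate readings.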
A general note: Time-resolved FRET reads energy transfer from a long-lived donor to a nearby acceptor.
In the case of `Cn1cc(-c2ccc(O[C@@H]3CCN(C(=O)Cc4ccc(OC(F)(F)F)cc4)C[C@@H]3F)c(C(N)=O)c2)cn1` [Example 74, 2-{[(3S,4R)-3-fluoro-1-{[4-(trifluoromethoxy)phenyl]acetyl}piperidin-4-yl]oxy}-5-(1-methyl-1H-pyrazol-4-yl)benzamide], the IC50 was 0.9 nM.

In the case of `Cn1cc(-c2ccc(O[C@H]3CCN(C(=O)Cc4ccc(OC(F)(F)F)cc4)C[C@H]3F)c(C(N)=O)c2)cn1` [Example 75, 2-{[(3R,4S)-3-fluoro-1-{[4-{trifluoromethoxy)phenyl]acetyl}piperidin-4-yl]oxy}-5-(1-methyl-1H-pyrazol-4-yl)benzamide], the IC50 turned out to be 0.9 nM.

For `NC(=O)c1cc(-c2cnn(C3CS(=O)(=O)C3)c2)ccc1O[C@H]1CCN(C(=O)Cc2ccc(OC(F)(F)F)cc2)C[C@H]1F` [Example 76, 5-[1-(1,1-dioxidothietan-3-yl)-1H-pyrazol-4-yl]-2-{[(3R,4S)-3-fluoro-1-{[4-(trifluoromethoxy)phenyl]acetyl}pipertdin-4-yl]oxy}benzamide], the IC50 stood at 1.2 nM.

As to `Cc1nc(-c2ccc(O[C@H]3CCN(C(=O)Cc4ccc(OC(F)(F)F)cc4)C[C@H]3F)c(C(N)=O)c2)c[nH]1` [Example 77, 2-{[(3R,4S)-3-fluoro-1-{[4-(trifluoromethoxy)phenyl]acetyl}pipertdin-4-yl]oxy}-5-(2-methyl-1H-imidazol-4-yl)benzamide], the IC50 worked out at 1.6 nM.

On to `NC(=O)c1cc(-c2cn[nH]c2)cnc1O[C@@H]1CCN(C(=O)Cc2ccc(OC3CC3)cn2)C[C@@H]1F` [Example 78, 2-{[(3S,4R)-1-{[5-(cyclopropyloxy)pyridin-2-yl]acetyl}-3-fluoropiperidin-4-yl]oxy}-5-(1H-pyrazol-4-yl)pyridine-3-carboxamide], for which the IC50 came to 2.6 nM.

For `Cc1n[nH]c(C)c1-c1cnc(O[C@@H]2CCN(C(=O)Cc3ccc(OC4CC4)cn3)C[C@@H]2F)c(C(N)=O)c1` [Example 79, 2-{[(3S,4R)-1-{[5-(cyclopropyloxy)pyridin-2-yl]acetyl}-3-fluoropiperidin-4-yl]oxy}-5-(3,5-dimethyl-1H-pyrazol-4-yl)pyridine-3-carboxamide], the IC50 was determined as 6.9 nM.

With `NC(=O)c1cc(-c2cn[nH]c2)cnc1O[C@H]1CCN(C(=O)Cc2ccc(OC3CC3)cn2)C[C@@H]1F` [Example 80, 2-{[(3S,4S)-1-{[5-(cyclopropyloxy)pyridin-2-yl]acetyl}-3-fluoropiperidin-4-yl]oxy}-5-(1H-pyrazol-4-yl)pyridine-3-carboxamide], the IC50 was determined as 9.9 nM.

As for `NC(=O)c1cc(-c2c[nH]cn2)cnc1O[C@@H]1CCN(C(=O)Cc2ccc(OC(F)(F)F)cc2)C[C@@H]1F` [Example 81, 2-{[(3S,4R)-3-fluoro-1-{[4-(trifluoromethoxy)phenyl]acetyl}piperidin-4-yl]oxy}-5-(1H-imidazol-4-yl)pyridine-3-carboxamide], the IC50 was 2.5 nM.

Consider `NC(=O)c1cc(-c2c[nH]cn2)cnc1O[C@H]1CCN(C(=O)Cc2ccc(OC(F)(F)F)cc2)C[C@@H]1F` [Example 82, 2-{[(3S,4S)-3-fluoro-1-{[4-(trifluoromethoxy)phenyl]acetyl}piperidin-4-yl]oxy}-5-(1H-imidazol-4-yl)pyridine-3-carboxamide], for which the IC50 came out at 4.2 nM.

`NC(=O)c1cc(-c2cn[nH]c2)ccc1O[C@@H]1CCN(C(=O)Cc2ccc(OC3CC3)cn2)C[C@@H]1F` [Example 83, 2-{[(3S,4R)-1-{[5-(cyclopropyloxy)pyridin-2-yl]acetyl}-3-fluoropiperidin-4-yl]oxy}-5-(1H-pyrazol-4-yl)benzamide]: the IC50 is 1.4 nM.

Turning to `NC(=O)c1cc(-c2cn[nH]c2)ccc1O[C@H]1CCN(C(=O)Cc2ccc(OC3CC3)cn2)C[C@@H]1F` [Example 84, 2-{[(3S,4S)-1-{[5-(cyclopropyloxy)pyridin-2-yl]acetyl}-3-fluoropiperidin-4-yl]oxy}-5-(1H-pyrazol-4-yl)benzamide], the concentration for half-maximal inhibition (IC50) worked out at 4.4 nM.

For `NC(=O)c1cc(-c2cn[nH]c2)ncc1O[C@@H]1CCN(C(=O)Cc2ccc(OC(F)(F)F)cc2)C[C@@H]1F` [Example 85, 5-{[(3S,4R)-3-fluoro-1-{[4-(trifluoromethoxy)phenyl]acetyl}piperidin-4-yl]oxy}-2-(1H-pyrazol-4-yl)pyridine-4-carboxamide], the half-inhibitory concentration (IC50) was determined as 1.7 nM.

As to `NC(=O)c1cc(-c2cn[nH]c2)ncc1O[C@H]1CCN(C(=O)Cc2ccc(OC(F)(F)F)cc2)C[C@@H]1F` [Example 86, 5-{[(3S,4S)-3-fluoro-1-{[4-(trifluoromethoxy)phenyl]acetyl}piperidin-4-yl]oxy}-2-(1H-pyrazol-4-yl)pyridine-4-carboxamide], the IC50 stood at 10.5 nM.

For the compound `NC(=O)c1cc(-c2cn[nH]c2)ncc1O[C@@H]1CCN(C(=O)Cc2ccc(OC3CC3)cn2)C[C@@H]1F` [Example 87, 5-{[(3S,4R)-1-{[5-(cyclopropyloxy)pyridin-2-yl]acetyl}-3-fluoropiperidin-4-yl]oxy}-2-(1H-pyrazol-4-yl)pyridine-4-carboxamide], the IC50 was found to be 6.8 nM.

`NC(=O)c1cc(-c2cn[nH]c2)ncc1O[C@H]1CCN(C(=O)Cc2ccc(OC(F)(F)F)cc2)C[C@H]1F` [Example 88, 5-{[(3R,4S)-3-fluoro-1-{[4-(trifluoromethoxy)phenyl]acetyl}piperidin-4-yl]oxy}-2-(1H-pyrazol-4-yl)pyridine-4-carboxamide]: the IC50 stood at 1.5 nM.

For the compound `NC(=O)c1cc(-c2cnn(CCO)c2)cnc1OC1CCN(C(=O)Cc2ccc(OC(F)(F)F)cc2)CC1` [Example 89, 5-[1-(2-hydroxyethyl)-1H-pyrazol-4-yl]-2-[(1-{[4-(trifluoromethoxy)phenyl]acetyl}piperidin-4-yl)oxy]pyridine-3-carboxamide], the IC50 came out at 5.4 nM.

On to `NC(=O)c1cc(-c2ccn(CCO)n2)ccc1OC1CCN(C(=O)Cc2ccc(OC(F)(F)F)cc2)CC1` [Example 90, 5-[1-(2-hydroxyethyl)-1H-pyrazol-3-yl]-2-[(1-{[4-{trifluoromethoxy)phenyl]acetyl}piperidin-4-yl)oxy]benzamide], for which the IC50 was found to be 4.2 nM.

Regarding `NC(=O)c1cc(-c2ccc(C(=O)O)cc2)cnc1OC1CCN(C(=O)Cc2ccc(OC(F)(F)F)cc2)CC1` [Example 95, 4-{5-carbamoyl-6-[(1-{[4-(trifluoromethoxy)phenyl]acetyl}piperidin-4-yl)oxy]pyridin-3-yl}benzoic acid], the IC50 was determined as 5.9 nM.

With `COCc1ccc(-c2cnc(OC3CCN(C(=O)Cc4ccc(OC(F)(F)F)cc4)CC3)c(C(N)=O)c2)cc1` [Example 97, 5-[4-(methoxymethyl)phenyl]-2-[(1-{[4-(trifluoromethoxy)phenyl]acetyl}piperidin-4-yl)oxy]pyridine-3-carboxamide], the IC50 stood at 7.4 nM.

With `NCc1ccc(-c2cnc(OC3CCN(C(=O)Cc4ccc(OC(F)(F)F)cc4)CC3)c(C(N)=O)c2)cc1` [Example 98, 5-[4-(aminomethyl)phenyl]-2-[(1-{[4-(trifluoromethoxy)phenyl]acetyl}piperidin-4-yl)oxy]pyridine-3-carboxamide], the IC50 is 10.5 nM.

For `Cc1nc[nH]c1-c1ccc(OC2CCN(C(=O)Cc3ccc(OC(F)(F)F)cc3)CC2)c(C(N)=O)c1` [Example 99, 5-(4-methyl-1H-imidazol-5-yl)-2-[(1-{[4-(trifluoromethoxy)phenyl]acetyl}piperidin-4-yl)oxy]benzamide], the IC50 worked out at 7.7 nM.

Regarding `NC(=O)c1cc(-c2nccs2)ccc1OC1CCN(C(=O)Cc2ccc(OC(F)(F)F)cc2)CC1` [Example 100, 5-(1,3-thiazol-2-yl)-2-[(1-{[4-(trifluoromethoxy)phenyl]acetyl}piperidin-4-yl)oxy]benzamide], the IC50 came to 8.5 nM.

On to `NC(=O)c1cc(-c2cscn2)ccc1OC1CCN(C(=O)Cc2ccc(OC(F)(F)F)cc2)CC1` [Example 101, 5-(1,3-thiazol-4-yl)-2-[(1-{[4-(trifluoromethoxy)phenyl]acetyl}piperidin-4-yl)oxy]benzamide], for which the half-maximal inhibitory concentration (IC50) is 9.4 nM.

Consider `Cc1n[nH]c(C)c1-c1ccc(OC2CCN(C(=O)Cc3ccc(OC(F)(F)F)cc3)CC2)c(C(N)=O)c1` [Example 102, 5-(3,5-dimethyl-1H-pyrazol-4-yl)-2-[(1-{[4-(trifluoromethoxy)phenyl]acetyl}piperidin-4-yl)oxy]benzamide], for which the IC50 amounted to 10.1 nM.

As for `NC(=O)c1cc(-c2ccc(N)nc2)ccc1OC1CCN(C(=O)Cc2ccc(OC(F)(F)F)cc2)CC1` [Example 104, 5-(6-aminopyridin-3-yl)-2-[(1-{[4-(trifluoromethoxy)phenyl]acetyl}piperidin-4-yl)oxy]benzamide], the IC50 was 4 nM.

Regarding `NCc1ccc(-c2ccc(OC3CCN(C(=O)Cc4ccc(OC(F)(F)F)cc4)CC3)c(C(N)=O)c2)cc1` [Example 105, 4′-(aminomethyl)-4-[(1-{[4-(trifluoromethoxy)phenyl]acetyl}piperidin-4-yl)oxy]biphenyl-3-carboxamide], the IC50 was found to be 5 nM.

Consider `NC(=O)c1cc(-c2cccc(CO)c2)ccc1OC1CCN(C(=O)Cc2ccc(OC(F)(F)F)cc2)CC1` [Example 106, 3′-(hydroxymethyl)-4-[(1-{[4-(trifluoromethoxy)phenyl]acetyl}piperidin-4-yl)oxy]biphenyl-3-carboxamide], for which the IC50 is 5.3 nM.

Turning to `Cn1cc(-c2ccc(OC3CCN(C(=O)Cc4ccc(C(C)(C)C)cc4)CC3)c(C(N)=O)c2)cn1` [Example 107, 2-({1-[(4-tert-butylphenyl)acetyl]piperidin-4-yl}oxy)-5-(1-methyl-1H-pyrazol-4-yl)benzamide], the IC50 was found to be 9.8 nM.

As for `Cn1cc(-c2ccc(OC3CCN(C(=O)Cc4ccc(SC(F)(F)F)cc4)CC3)c(C(N)=O)c2)cn1` [Example 108, 5-(1-methyl-1H-pyrazol-4-yl)-2-{[1-({4-[(trifluoromethyl)sulfanyl]phenyl}acetyl)piperidin-4-yl]oxy}benzamide], the IC50 was found to be 2.7 nM.
